Assay results reported in patent US9085555B2, “Complement pathway modulators and uses thereof” (priority 2011, dated 2015).

Target: Factor D (Homo sapiens (Human), UniProt P00746)
Experiment: biochemical
Type: biochemical
Details: read-out: IC50

Chain of Factor D (P00746 26-253): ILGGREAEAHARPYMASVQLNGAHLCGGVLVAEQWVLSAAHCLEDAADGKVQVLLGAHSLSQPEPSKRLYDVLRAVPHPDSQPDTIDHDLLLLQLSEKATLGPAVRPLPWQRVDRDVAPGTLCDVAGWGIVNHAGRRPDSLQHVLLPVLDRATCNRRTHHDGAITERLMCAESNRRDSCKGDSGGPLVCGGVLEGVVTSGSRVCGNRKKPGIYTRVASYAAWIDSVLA

Compound | IC50 [nM]
NC(=O)n1cc(NC(=O)N2C[C@H](F)C[C@H]2C(=O)Nc2cccc(Br)n2)c2ccccc21 [Example 764, (2S,4R)-4-Fluoro-pyrrolidine-1,2-dicarboxylic acid 2-[(6-bromo-pyridin-2-yl)-amide]1-[(1-carbamoyl-1H-indol-3-yl)-amide]] | 4
CCOC(=O)[C@H](CC1CCCCC1)NC(=O)[C@@H]1C[C@H]2C[C@H]2N1C(=O)Cn1nc(C(C)=O)c2cccnc21 [Example 765] | 211
COC(=O)[C@H](CC(C)C)NC(=O)[C@@H]1C[C@H]2C[C@H]2N1C(=O)Cn1nc(C(C)=O)c2cccnc21 [Example 766, (S)-2-({(1R,3S,5R)-2-[2-(3-Acetyl-pyrazolo[3,4-b]pyridin-1-yl)-acetyl]-2-aza-bicyclo[3.1.0]hexane-3-carbonyl}-amino)-4-methyl-pentanoic acid methyl ester] | 216
COC(=O)C(CCC(F)(F)F)NC(=O)[C@@H]1C[C@H]2C[C@H]2N1C(=O)Cn1nc(C(C)=O)c2cccnc21 (stereo partly drawn) [Example 767, 2-({(1R,3S,5R)-2-[2-(3-Acetyl-pyrazolo[3,4-b]pyridin-1-yl)-acetyl]-2-aza-bicyclo[3.1.0]hexane-3-carbonyl}-amino)-5,5,5-trifluoro-pentanoic acid methyl ester] | 346
CC(=O)c1nn(CC(=O)N2[C@@H]3C[C@@H]3C[C@H]2C(=O)Nc2nccc(C(F)(F)F)n2)c2ncccc12 [Example 769, (1R,3S,5R)-2-[2-(3-Acetyl-pyrazolo[3,4-b]pyridin-1-yl)-acetyl]-2-aza-bicyclo[3.1.0]hexane-3-carboxylic acid (4-trifluoromethyl-pyrimidin-2-yl)-amide] | 378
COCCOc1ccc2c(c1)c(C(C)=O)nn2CC(=O)N1[C@@H]2C[C@@H]2C[C@H]1C(=O)Nc1cccc(OC(F)(F)F)c1F [Example 770, (1R,3S,5R)-2-{2-[3-Acetyl-5-(2-methoxy-ethoxy)-indazol-1-yl]-acetyl}-2-aza-bicyclo[3.1.0]hexane-3-carboxylic acid (2-fluoro-3-trifluoromethoxy-phenyl)-amide] | 9
CC(=O)c1nn(CC(=O)N2[C@@H]3C[C@@H]3C[C@H]2C(=O)Nc2cccc(OC(F)(F)F)c2F)c2ccc(OC(C)C#N)cc12 (stereo partly drawn) [Example 771, (1R,3S,5R)-2-{2-[3-Acetyl-5-(cyano-methyl-methoxy)-indazol-1-yl]-acetyl}-2-aza-bicyclo[3.1.0]hexane-3-carboxylic acid (2-fluoro-3-trifluoromethoxy-phenyl)-amide] | 8
CC(=O)c1nn(CC(=O)N2[C@@H]3C[C@@H]3C[C@H]2C(=O)Nc2cccc(OC(F)(F)F)c2F)c2ccc(OCC3CCCO3)cc12 (stereo partly drawn) [Example 772, (1R,3S,5R)-2-{2-[3-Acetyl-5-(tetrahydro-furan-2-ylmethoxy)-indazol-1-yl]-acetyl}-2-aza-bicyclo[3.1.0]hexane-3-carboxylic acid (2-fluoro-3-trifluoromethoxy-phenyl)-amide] | 7
CC(=O)c1cn(CC(=O)N2C[C@H](F)[C@@H](F)[C@H]2C(=O)NCc2cccc(Cl)c2F)c2ccccc12 [Example 773, (2R,3S,4S)-1-[2-(3-Acetyl-indol-1-yl)-acetyl]-3,4-difluoro-pyrrolidine-2-carboxylic acid 3-chloro-2-fluoro-benzylamide] | 28
(1R,3S,5R)-2-[2-(3-Acetyl-6- amino-pyrrolo[2,3-b]pyridin-1- yl)-acetyl]-2-aza-bicyclo [3.1.0]hexane-3-carboxylic acid 3-chloro-2-fluoro- benzylamide [Example 676] | 11
(1R,3S,5S)-5-Hydroxymethyl- 2-aza-bicyclo[3.1.0]hexane- 2,3-dicarboxylic acid 3-(3- chloro-2-fluoro-benzylamide) 2-[(1-methylcarbamoyl-1H- indol-3-yl)-amide] [Example 265] | 83
(2S,4R)-4-Fluoro-pyrrolidine-1,2-dicarboxylic acid 1-[(3-carbamoyl-indolizin-1-yl)-amide]2-[(3-trifluoromethoxy-phenyl)-amide] [Example 122] | 150
(2S,4S)-4-Amino-pyrrolidine-1,2-dicarboxylic acid 1-[(1-carbamoyl-1H-indol-3-yl)-amide] 2-[(2-phenoxy-ethyl)-amide] [Example 91] | 2950
(S)-1-[2-(3-Formyl-indol-1-yl)- acetyl]-pyrrolidine-2- carboxylic acid (3-trifluoro- methoxy-phenyl)-amide [Example 559] | 15700
